# Data taken from the supplement of paper PMC10307832.
# Legend:
# Assay in all cases: relative viability (nuclei count vs DMSO), 5 days (fraction); higher = more cells survive
# [1] = system: A-427
# Procedure, shortened: (§1)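 One day after seeding in 1536-well plates, lung cancer cell lines were dosed by pin tool. Dosing was either single-drug or a fixed anchor-drug dose plus five library-drug doses (not always all listed) in √10 steps. After 5 days, nuclei were stained in one fix-and-stain step and counted on 4× images, and relative viability is the nuclei count of treated wells over that of vehicle wells, given as the median of duplicate plates.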
# [2] = system: BEN
# Procedure, shortened: as §1
# [3] = system: EKVX
# Procedure, shortened: as §1
# [4] = system: LC-2-ad
# Procedure, shortened: as §1
# [5] = system: LCLC-97TM1
# Procedure, shortened: as §1
# [6] = system: LOU-NH91
# Procedure, shortened: as §1
# [7] = system: LU99A
# Procedure, shortened: as §1
# [8] = system: NCI-H1355
# Procedure, shortened: as §1
# [9] = system: NCI-H1650
# Procedure, shortened: as §1
# [10] = system: NCI-H1666
# Procedure, shortened: as §1
# [11] = system: NCI-H1793
# Procedure, shortened: as §1
# [12] = system: NCI-H1915
# Procedure, shortened: as §1
# [13] = system: NCI-H1993
# Procedure, shortened: as §1
# [14] = system: NCI-H2228
# Procedure, shortened: as §1
# [15] = system: NCI-H2347
# Procedure, shortened: as §1
# [16] = system: NCI-H23
# Procedure, shortened: as §1
# [17] = system: NCI-H460
# Procedure, shortened: as §1
# [18] = system: NCI-H520
# Procedure, shortened: as §1
# [19] = system: NCI-H650
# Procedure, shortened: as §1
# [20] = system: NCI-H838
# Procedure, shortened: as §1
# [21] = system: PC-3 [JPC-3]
# Procedure, shortened: as §1
# [22] = system: RERF-LC-KJ
# Procedure, shortened: as §1
# [23] = system: SW 1573
# Procedure, shortened: as §1
smiles,measurement,setting,value
O=C(O)CCCCC(CCSCc1ccccc1)SCc1ccccc1 (stereo not drawn) [CPI-613] + CC(=O)Nc1cccc(-n2c(=O)n(C3CC3)c(=O)c3c(Nc4ccc(I)cc4F)n(C)c(=O)c(C)c32)c1 [Trametinib] (partner 0.02 µM),relative viability,[1]; first compound 5 µM,0.716
same,relative viability,[1]; first compound 15.81 µM,0.766
same,relative viability,[1]; first compound 50 µM,0.682
same,relative viability,[1]; first compound 158.11 µM,0.476
same,relative viability,[1]; first compound 500 µM,0.391
same,relative viability,[2]; first compound 5 µM,1.14
same,relative viability,[2]; first compound 15.81 µM,0.976
same,relative viability,[2]; first compound 50 µM,0.958
same,relative viability,[2]; first compound 158.11 µM,0.804
same,relative viability,[2]; first compound 500 µM,0.905
same,relative viability,[3]; first compound 5 µM,0.287
same,relative viability,[3]; first compound 15.81 µM,0.272
same,relative viability,[3]; first compound 50 µM,0.343
same,relative viability,[3]; first compound 500 µM,0.325
same,relative viability,[4]; first compound 5 µM,0.857
same,relative viability,[4]; first compound 15.81 µM,0.899
same,relative viability,[4]; first compound 50 µM,0.911
same,relative viability,[4]; first compound 158.11 µM,0.695
same,relative viability,[4]; first compound 500 µM,0.0212
same,relative viability,[5]; first compound 5 µM,0.202
same,relative viability,[5]; first compound 15.81 µM,0.162
same,relative viability,[5]; first compound 50 µM,0.153
same,relative viability,[5]; first compound 158.11 µM,0.0713
same,relative viability,[5]; first compound 500 µM,0.0622
same,relative viability,[6]; first compound 5 µM,0.767
same,relative viability,[6]; first compound 15.81 µM,0.723
same,relative viability,[6]; first compound 50 µM,0.775
same,relative viability,[6]; first compound 158.11 µM,0.775
same,relative viability,[6]; first compound 500 µM,0.674
same,relative viability,[7]; first compound 5 µM,0.51
same,relative viability,[7]; first compound 15.81 µM,0.524
same,relative viability,[7]; first compound 50 µM,0.461
same,relative viability,[7]; first compound 158.11 µM,0.338
same,relative viability,[7]; first compound 500 µM,0.357
same,relative viability,[8]; first compound 5 µM,0.44
same,relative viability,[8]; first compound 15.81 µM,0.409
same,relative viability,[8]; first compound 50 µM,0.42
same,relative viability,[8]; first compound 158.11 µM,0.27
same,relative viability,[8]; first compound 500 µM,0.112
same,relative viability,[9]; first compound 5 µM,0.546
same,relative viability,[9]; first compound 15.81 µM,0.548
same,relative viability,[9]; first compound 50 µM,0.537
same,relative viability,[9]; first compound 158.11 µM,0.168
same,relative viability,[9]; first compound 500 µM,0.0145
same,relative viability,[10]; first compound 5 µM,0.888
same,relative viability,[10]; first compound 15.81 µM,0.821
same,relative viability,[10]; first compound 50 µM,0.796
same,relative viability,[10]; first compound 158.11 µM,0.488
same,relative viability,[10]; first compound 500 µM,0.394
same,relative viability,[11]; first compound 5 µM,0.429
same,relative viability,[11]; first compound 15.81 µM,0.413
same,relative viability,[11]; first compound 50 µM,0.405
same,relative viability,[11]; first compound 158.11 µM,0.225
same,relative viability,[11]; first compound 500 µM,0.0839
same,relative viability,[12]; first compound 5 µM,0.292
same,relative viability,[12]; first compound 15.81 µM,0.284
same,relative viability,[12]; first compound 50 µM,0.299
same,relative viability,[12]; first compound 158.11 µM,0.216
same,relative viability,[12]; first compound 500 µM,0.148
same,relative viability,[13]; first compound 5 µM,0.466
same,relative viability,[13]; first compound 15.81 µM,0.456
same,relative viability,[13]; first compound 50 µM,0.528
same,relative viability,[13]; first compound 158.11 µM,0.51
same,relative viability,[13]; first compound 500 µM,0.291
same,relative viability,[14]; first compound 5 µM,0.549
same,relative viability,[14]; first compound 15.81 µM,0.393
same,relative viability,[14]; first compound 50 µM,0.343
same,relative viability,[14]; first compound 158.11 µM,0.452
same,relative viability,[14]; first compound 500 µM,0.052
same,relative viability,[15]; first compound 5 µM,0.256
same,relative viability,[15]; first compound 15.81 µM,0.232
same,relative viability,[15]; first compound 50 µM,0.259
same,relative viability,[15]; first compound 158.11 µM,0.22
same,relative viability,[15]; first compound 500 µM,0.206
same,relative viability,[16]; first compound 5 µM,0.394
same,relative viability,[16]; first compound 15.81 µM,0.25
same,relative viability,[16]; first compound 50 µM,0.393
same,relative viability,[16]; first compound 158.11 µM,0.11
same,relative viability,[16]; first compound 500 µM,0.0106
same,relative viability,[17]; first compound 5 µM,0.128
same,relative viability,[17]; first compound 15.81 µM,0.132
same,relative viability,[17]; first compound 50 µM,0.116
same,relative viability,[17]; first compound 158.11 µM,0.0278
same,relative viability,[17]; first compound 500 µM,0.0229
same,relative viability,[18]; first compound 5 µM,0.691
same,relative viability,[18]; first compound 15.81 µM,0.708
same,relative viability,[18]; first compound 50 µM,0.552
same,relative viability,[18]; first compound 158.11 µM,0.16
same,relative viability,[18]; first compound 500 µM,0.0957
same,relative viability,[19]; first compound 5 µM,0.969
same,relative viability,[19]; first compound 15.81 µM,0.994
same,relative viability,[19]; first compound 50 µM,0.849
same,relative viability,[19]; first compound 158.11 µM,0.929
same,relative viability,[19]; first compound 500 µM,0.889
same,relative viability,[20]; first compound 5 µM,0.514
same,relative viability,[20]; first compound 15.81 µM,0.461
same,relative viability,[20]; first compound 50 µM,0.468
same,relative viability,[20]; first compound 158.11 µM,0.232
same,relative viability,[20]; first compound 500 µM,0.065
same,relative viability,[21]; first compound 5 µM,0.659
same,relative viability,[21]; first compound 50 µM,0.712
same,relative viability,[21]; first compound 158.11 µM,0.321
same,relative viability,[21]; first compound 500 µM,0.433
same,relative viability,[22]; first compound 5 µM,0.76
same,relative viability,[22]; first compound 15.81 µM,0.878
same,relative viability,[22]; first compound 50 µM,0.845
same,relative viability,[22]; first compound 158.11 µM,0.458
same,relative viability,[22]; first compound 500 µM,0.44
same,relative viability,[23]; first compound 5 µM,0.557
same,relative viability,[23]; first compound 15.81 µM,0.433
same,relative viability,[23]; first compound 50 µM,0.482
same,relative viability,[23]; first compound 158.11 µM,0.133
same,relative viability,[23]; first compound 500 µM,0.0735
